Experimental data as given in PubChem BioAssay AID1963971 (Molecular Pharmacology Branch, DTP, NCI, 2024).
Several values for one entry are separate records, joined by “and”; a condition that tells them apart may be missing. Identical values can stand only once.

System: 953936-095-R-J2-PDC spheroids with HUVEC/MSC, viability
Test: Anticancer human tumor 953936-095-R-J2-PDC patient-derived cervical squamous cell carcinoma cell line growth inhibition [PI3K]
Conditions: for viability, T/C: stronger effect = lower value
Method in brief: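 Stroma-containing spheroids: tumor line, pooled-donor HUVEC, hMSC. Treatments: targeted agents with PI3K inhibitors. Dosing: clinically relevant, half-log spacing, 10 microM ceiling without known Cmax. Read-out: cell viability.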
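Further: spheroids exposed to compounds for seven days before read-out.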

Cn1nccc1Nc1nccc(-c2ccn(C(CO)c3ccc(Cl)c(F)c3)c(=O)c2)n1 (stereo unspecified)
viability, T/C (compound 0.0316 µM): 90.7% [middle of 4 runs]
viability, T/C (compound 0.1 µM): 97.3% [middle of 4 runs]
viability, T/C (compound 0.316 µM): 91.1% [middle of 4 runs]
viability, T/C (compound 1 µM): 90% [middle of 4 runs]
viability, T/C (compound 3.16 µM): 82.7% [middle of 4 runs]
viability, T/C (compound 10 µM): 77.9% [middle of 4 runs]
IC50 (curve of compound): > 10 µM

CC(C)NCC(C(=O)N1CCN(c2ncnc3c2C(C)CC3O)CC1)c1ccc(Cl)cc1 (stereo unspecified)
viability, T/C (compound 0.0316 µM): 92.7% [middle of 4 runs]
viability, T/C (compound 0.1 µM): 91.5% [middle of 4 runs]
viability, T/C (compound 0.316 µM): 80.4% [middle of 4 runs]
viability, T/C (compound 1 µM): 50.5% [middle of 4 runs]
viability, T/C (compound 3.16 µM): 24.3% [middle of 4 runs]
viability, T/C (compound 10 µM): 15.2% [middle of 4 runs]
IC50 (curve of compound): 1.02 µM [middle of 4 runs]

Cn1nccc1Nc1nccc(-c2ccn(C(CO)c3ccc(Cl)c(F)c3)c(=O)c2)n1 (stereo unspecified) + CC(Nc1ccc2c(c1)OCCn1cc(N3C(=O)OCC3C(F)F)nc1-2)C(N)=O
IC50 (curve of first compound, second compound 0.00316 µM): > 10 µM
IC50 (curve of first compound, second compound 0.01 µM): > 10 µM
IC50 (curve of first compound, second compound 0.0316 µM): > 10 µM
IC50 (curve of first compound, second compound 0.1 µM): 0.383 µM
IC50 (curve of first compound, second compound 0.316 µM): < 0.0316 µM
IC50 (curve of first compound, second compound 1 µM): < 0.0316 µM
viability, T/C (second compound 0.00316 µM, first compound 0.0316 µM): 86.2%
viability, T/C (second compound 0.00316 µM, first compound 0.1 µM): 87%
viability, T/C (second compound 0.00316 µM, first compound 0.316 µM): 93.8%
viability, T/C (second compound 0.00316 µM, first compound 1 µM): 95.1%
viability, T/C (second compound 0.00316 µM, first compound 3.16 µM): 80.4%
viability, T/C (second compound 0.00316 µM, first compound 10 µM): 71.7%
viability, T/C (second compound 0.01 µM, first compound 0.0316 µM): 84.4%
viability, T/C (second compound 0.01 µM, first compound 0.1 µM): 94%
viability, T/C (second compound 0.01 µM, first compound 0.316 µM): 88.8%
viability, T/C (second compound 0.01 µM, first compound 1 µM): 77.1%
viability, T/C (second compound 0.01 µM, first compound 3.16 µM): 78.8%
viability, T/C (second compound 0.01 µM, first compound 10 µM): 70%
viability, T/C (second compound 0.0316 µM, first compound 0.0316 µM): 75.2%
viability, T/C (second compound 0.0316 µM, first compound 0.1 µM): 68.8%
viability, T/C (second compound 0.0316 µM, first compound 0.316 µM): 70.1%
viability, T/C (second compound 0.0316 µM, first compound 1 µM): 72%
viability, T/C (second compound 0.0316 µM, first compound 3.16 µM): 65.1%
viability, T/C (second compound 0.0316 µM, first compound 10 µM): 61.9%
viability, T/C (second compound 0.1 µM, first compound 0.0316 µM): 62.1%
viability, T/C (second compound 0.1 µM, first compound 0.1 µM): 52.7%
viability, T/C (second compound 0.1 µM, first compound 0.316 µM): 51.3%
viability, T/C (second compound 0.1 µM, first compound 1 µM): 46.5%
viability, T/C (second compound 0.1 µM, first compound 3.16 µM): 47.8%
viability, T/C (second compound 0.1 µM, first compound 10 µM): 40.1%
viability, T/C (second compound 0.316 µM, first compound 0.0316 µM): 36.3%
viability, T/C (second compound 0.316 µM, first compound 0.1 µM): 32.8%
viability, T/C (second compound 0.316 µM, first compound 0.316 µM): 31%
viability, T/C (second compound 0.316 µM, first compound 1 µM): 28.4%
viability, T/C (second compound 0.316 µM, first compound 3.16 µM): 24%
viability, T/C (second compound 0.316 µM, first compound 10 µM): 19.5%
viability, T/C (second compound 1 µM, first compound 0.0316 µM): 21.9%
viability, T/C (second compound 1 µM, first compound 0.1 µM): 20.9%
viability, T/C (second compound 1 µM, first compound 0.316 µM): 18%
viability, T/C (second compound 1 µM, first compound 1 µM): 15.1%
viability, T/C (second compound 1 µM, first compound 3.16 µM): 12.6%
viability, T/C (second compound 1 µM, first compound 10 µM): 8.88%

CNC(=O)c1ccc(N2C(=S)N(c3ccc(C#N)c(C(F)(F)F)c3)C(=O)C2(C)C)cc1F
viability, T/C (compound 0.0316 µM): 106% (2×) and 93.7% and 103%
viability, T/C (compound 0.1 µM): 98% [middle of 4 runs]
viability, T/C (compound 0.316 µM): 93.5% [middle of 4 runs]
viability, T/C (compound 1 µM): 102% (2×) and 112% and 107%
viability, T/C (compound 10 µM): 88.5% [middle of 4 runs]
IC50 (curve of compound): > 10 µM

CC(=O)c1c(C)c2cnc(Nc3ccc(N4CCNCC4)cn3)nc2n(C2CCCC2)c1=O
viability, T/C (compound 0.000316 µM): 95.2% [middle of 4 runs]
viability, T/C (compound 0.001 µM): 96.6% [middle of 4 runs]
viability, T/C (compound 0.00316 µM): 103% [middle of 4 runs]
viability, T/C (compound 0.01 µM): 97.6% [middle of 4 runs]
viability, T/C (compound 0.0316 µM): 96.6% [middle of 4 runs]
viability, T/C (compound 0.1 µM): 95.7% [middle of 4 runs]
IC50 (curve of compound): > 0.1 µM

CCCS(=O)(=O)Nc1ccc(F)c(C(=O)c2c[nH]c3ncc(-c4ccc(Cl)cc4)cc23)c1F
viability, T/C (compound 0.0316 µM): 94.5% [middle of 4 runs]
viability, T/C (compound 0.1 µM): 106% (2×) and 102% and 103%
viability, T/C (compound 0.316 µM): 113% [middle of 4 runs]
viability, T/C (compound 1 µM): 113% [middle of 4 runs]
viability, T/C (compound 3.16 µM): 105% [middle of 4 runs]
viability, T/C (compound 10 µM): 1.33% [middle of 4 runs]
IC50 (curve of compound): 5.69 µM [middle of 4 runs]
